How the values were obtained:
[1] = tested on: IGROV1 cells (cisplatin-sensitive ovarian adenocarcinoma line); test: Assay of intracellular cisplatin (ICP optical assay after cell lysis); format: cell-based, human; conditions: 10^6 IGROV1 cells, 100 μM, 2 hours
Experimental: (§1) IGROV1 cells (cisplatin-sensitive ovarian adenocarcinoma line) at 80% confluence (dish 10 cm in diameter) are treated with […] of free cisplatin or cisplatin encapsulated in the nanoparticles of Example 10 for 2, 4 or 6 hours. On completion of this treatment two washings with PBS are carried out. The cells are treated with trypsin and resuspended in PBS. Two washings of the cell suspensions with PBS are carried out (centrifugation 1000 rpm/1 min). The cells are suspended in 1 mL of PBS and counted.
(§2) 10^6 cells are lysed with 500 μL of the cell lysis solution (lysis buffer from SIGMA). The volume is topped up to 5 mL with milli-Q water with 1% HNO3 acid.

[2] = tested on: cisplatin-resistant A2780/CisPt (Human ovarian carcinoma epithelial tumor); test: Cytotoxic effects on tumor lines (MTS cell viability); format: cell-based; conditions: cisplatin-resistant line A2780; 24 hours treatment, MTS 48 hours after washing; read-out: concentration necessary to obtain 50% cell death (IC50)
Source text: (§3) The study consists of determining the concentration inhibiting 50% of cell proliferation (IC50) on a panel of tumor lines, namely • cisplatin-sensitive A2780 (Human ovarian carcinoma epithelial tumor) and cisplatin-resistant A2780/CisPt (Human ovarian carcinoma epithelial tumor) • cisplatin-sensitive IGROV-1 (Human ovarian carcinoma) and cisplatin-resistant IGROV-1/CisPt (Human ovarian carcinoma) • cisplatin-sensitive L1210 (mouse lymphocytic leukemia) and cisplatin-resistant L1210/CisPt (mouse lymphocytic leukemia) […] • NIH: OVCAR3 (ovarian carcinoma), and • P388 (mouse lymphoma)
(§4) 2500 cells (ovarian adenocarcinoma lines, etc.) per well are incubated in 100 μL of the medium with serum in a 96-well plate. After 24 hours the medium is aspirated and the cells are treated with free cisplatin or cisplatin encapsulated in the nanoparticles of Example 10 in 100 μL of the medium without serum at different concentrations (500, 100, 10, 1, 0.1, 0.01, 0.001 μM). After treatment for 24 hours, the medium is removed and the cells are washed twice with 100 μL of PBS then incubated with 100 μL of the medium with serum.
(§5) The absorbance at 490 nm is measured after incubation for 2 to 4 hours at 37° C. The absorbance is proportional to the cell viability.

[3] = tested on: cisplatin-sensitive A2780 (Human ovarian carcinoma epithelial tumor); test: as above; format: cell-based; conditions: 24 hours treatment, MTS 48 hours after washing, read-out: concentration necessary to obtain 50% cell death (IC50)
Source text: as §3, §4, §5

[4] = tested on: SKV03 cells (cisplatin-resistant ovarian adenocarcinoma line); test: Assay of intracellular cisplatin (ICP optical assay after cell lysis); format: cell-based; conditions: 10^6 cells SKOV3, 100 μM, 2 hours
Experimental: as §1
The same procedure is followed with SKV03 cells (cisplatin-resistant ovarian adenocarcinoma line).
as §2

[5] = tested on: IGROV1 (cisplatin-sensitive); test: Cytotoxic effects on tumor lines IGROV-1 and SKOV3 (MTS cell viability); format: cell-based, human; conditions: 24 hours treatment, MTS 48 hours after washing, read-out: concentration necessary to obtain 50% cell death (IC50)
Experimental: as §4, with “(IGROV1, SKOV3, ovarian” for “(ovarian”, “lines)” for “lines, etc.)”
as §5

[6] = tested on: SKOV3 (cisplatin-resistant); test: as above; format: cell-based; conditions: 24 hours treatment, MTS 48 hours after washing, read-out: concentration necessary to obtain 50% cell death (IC50)
Experimental: as §4, with “(IGROV1, SKOV3, ovarian” for “(ovarian”, “lines)” for “lines, etc.)”
as §5

## N.N.[Cl][Pt][Cl] [free cisplatin, cisplatin]
[1]
  cisplatin internalized: 0.5 nmol
[2]
  IC50: 29.2 µM
[3]
  IC50: 4.68 µM
[4]
  cisplatin internalized: 0.5 nmol
[5]
  IC50: 2.41 µM
[6]
  IC50: 4.3 µM
